Assay results published in ChEMBL document CHEMBL1201862, “PubChem BioAssay data set” (2004).
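Tested at 5 concentrations; 48 h exposure; 96-well plates; endpoints linearly interpolated, else capped at highest concentration. Abbreviation: GI50, concentration required for 50% inhibition of growth.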 Active and inactive are the calls of the source. Cut-off read from the data, not from the text of the source: active = GI50 up to about 1.1 µM and inactive = higher.

Tests used:
Experiment in all cases: NCI tumour cell line growth inhibition, 48 h
786-0 = tested on: 786-0
A498 = tested on: A498
A549 = tested on: A549
ACHN = tested on: ACHN
CAKI-1 = tested on: CAKI-1
CCRF-CEM = tested on: CCRF-CEM
COLO 205 = tested on: COLO 205
DLD-1 = tested on: DLD-1
DMS-114 = tested on: DMS-114
DMS-273 = tested on: DMS-273
EKVX = tested on: EKVX
HCC 2998 = tested on: HCC 2998
HCT-116 = tested on: HCT-116
HCT-15 = tested on: HCT-15
HL-60 = tested on: HL-60
HOP-18 = tested on: HOP-18
HOP-62 = tested on: HOP-62
HOP-92 = tested on: HOP-92
HT-29 = tested on: HT-29
IGROV-1 = tested on: IGROV-1
K562 = tested on: K562
KM-20L2 = tested on: KM-20L2
KM12 = tested on: KM12
LOX IMVI = tested on: LOX IMVI
LXFL 529 = tested on: LXFL 529
M14 = tested on: M14
M19-MEL = tested on: M19-MEL
MOLT-4 = tested on: MOLT-4
Malme-3M = tested on: Malme-3M
NCI-H226 = tested on: NCI-H226
NCI-H23 = tested on: NCI-H23
NCI-H460 = tested on: NCI-H460
NCI-H522 = tested on: NCI-H522
OVCAR-3 = tested on: OVCAR-3
OVCAR-4 = tested on: OVCAR-4
OVCAR-5 = tested on: OVCAR-5
OVCAR-8 = tested on: OVCAR-8
RPMI-8226 = tested on: RPMI-8226
RXF 393 = tested on: RXF 393
SF-268 = tested on: SF-268
SF-295 = tested on: SF-295
SF-539 = tested on: SF-539
SK-MEL-28 = tested on: SK-MEL-28
SK-MEL-2 = tested on: SK-MEL-2
SK-MEL-5 = tested on: SK-MEL-5
SK-OV-3 = tested on: SK-OV-3
SN12C = tested on: SN12C
SNB-19 = tested on: SNB-19
SNB-75 = tested on: SNB-75
SNB-78 = tested on: SNB-78
SR = tested on: SR
SW-620 = tested on: SW-620
TK-10 = tested on: TK-10
U-251 = tested on: U-251
UACC-257 = tested on: UACC-257
UACC-62 = tested on: UACC-62
UO-31 = tested on: UO-31
DU-145 = tested on: DU-145
Hs-578T = tested on: Hs-578T
MCF7 = tested on: MCF7
MDA-MB-231 = tested on: MDA-MB-231
MDA-MB-435 = tested on: MDA-MB-435
MDA-N = tested on: MDA-N
NCI/ADR-RES = tested on: NCI/ADR-RES
PC-3 = tested on: PC-3
T47D = tested on: T47D
XF498 = tested on: XF498

Compound: COC(=O)C1=CC(O)CCC1c1ccc(OC)cc1 (stereo not given)
- GI50 (786-0): > 100 µM (inactive)
- GI50 (A498): > 100 µM (inactive)
- GI50 (A549): > 100 µM (inactive)
- GI50 (ACHN): > 100 µM (inactive)
- GI50 (CAKI-1): > 100 µM (inactive)
- GI50 (CCRF-CEM): > 100 µM (inactive)
- GI50 (COLO 205): > 100 µM (inactive)
- GI50 (DLD-1): > 100 µM (inactive)
- GI50 (DMS-114): > 100 µM (inactive)
- GI50 (DMS-273): > 100 µM (inactive)
- GI50 (EKVX): > 100 µM (inactive)
- GI50 (HCC 2998): > 100 µM (inactive)
- GI50 (HCT-116): > 100 µM (inactive)
- GI50 (HCT-15): > 100 µM
- GI50 (HL-60): > 100 µM (inactive)
- GI50 (HOP-18): > 100 µM (inactive)
- GI50 (HOP-62): > 100 µM (inactive)
- GI50 (HOP-92): > 100 µM (inactive)
- GI50 (HT-29): > 100 µM (inactive)
- GI50 (IGROV-1): > 100 µM (inactive)
- GI50 (K562): > 100 µM (inactive)
- GI50 (KM-20L2): > 100 µM (inactive)
- GI50 (KM12): > 100 µM (inactive)
- GI50 (LOX IMVI): > 100 µM (inactive)
- GI50 (LXFL 529): > 100 µM (inactive)
- GI50 (M14): > 100 µM (inactive)
- GI50 (M19-MEL): > 100 µM (inactive)
- GI50 (MOLT-4): > 100 µM (inactive)
- GI50 (Malme-3M): > 100 µM (inactive)
- GI50 (NCI-H226): > 100 µM (inactive)
- GI50 (NCI-H23): > 100 µM (inactive)
- GI50 (NCI-H460): > 100 µM (inactive)
- GI50 (NCI-H522): > 100 µM (inactive)
- GI50 (OVCAR-3): > 100 µM (inactive)
- GI50 (OVCAR-4): > 100 µM (inactive)
- GI50 (OVCAR-5): > 100 µM (inactive)
- GI50 (OVCAR-8): > 100 µM (inactive)
- GI50 (RPMI-8226): > 100 µM (inactive)
- GI50 (RXF 393): > 100 µM (inactive)
- GI50 (SF-268): > 100 µM (inactive)
- GI50 (SF-295): > 100 µM (inactive)
- GI50 (SF-539): > 100 µM (inactive)
- GI50 (SK-MEL-28): > 100 µM (inactive)
- GI50 (SK-MEL-2): > 100 µM (inactive)
- GI50 (SK-MEL-5): > 100 µM (inactive)
- GI50 (SK-OV-3): > 100 µM (inactive)
- GI50 (SN12C): > 100 µM (inactive)
- GI50 (SNB-19): > 100 µM (inactive)
- GI50 (SNB-75): > 100 µM (inactive)
- GI50 (SNB-78): > 100 µM (inactive)
- GI50 (SR): > 100 µM (inactive)
- GI50 (SW-620): > 100 µM (inactive)
- GI50 (TK-10): > 100 µM (inactive)
- GI50 (U-251): > 100 µM (inactive)
- GI50 (UACC-257): > 100 µM (inactive)
- GI50 (UACC-62): > 100 µM (inactive)
- GI50 (UO-31): > 100 µM (inactive)

Compound: CSc1ccc2c(cc1=O)C(NC(=O)c1cc(O)c(OC(=O)O)c(O)c1)CCc1cc(O)c(O)c(O)c1-2 (stereo not given)
- GI50 (786-0): 34 µM (inactive)
- GI50 (A498): 36.1 µM (inactive)
- GI50 (A549): 19.5 µM (inactive)
- GI50 (ACHN): 33.8 µM (inactive)
- GI50 (CAKI-1): 19.3 µM (inactive)
- GI50 (CCRF-CEM): 11.9 µM (inactive)
- GI50 (COLO 205): 30.3 µM (inactive)
- GI50 (DLD-1): 18.5 µM (inactive)
- GI50 (DMS-114): 15.2 µM (inactive)
- GI50 (DMS-273): 17 µM (inactive)
- GI50 (EKVX): 20 µM (inactive)
- GI50 (HCC 2998): > 89.9 µM (inactive)
- GI50 (HCT-116): 16.5 µM (inactive)
- GI50 (HCT-15): 16.1 µM
- GI50 (HL-60): 10 µM (inactive)
- GI50 (HOP-18): > 89.9 µM (inactive)
- GI50 (HOP-62): 19 µM (inactive)
- GI50 (HOP-92): 22.8 µM (inactive)
- GI50 (HT-29): 20 µM (inactive)
- GI50 (IGROV-1): 19.7 µM (inactive)
- GI50 (K562): 12.2 µM (inactive)
- GI50 (KM-20L2): 24.9 µM (inactive)
- GI50 (KM12): 22.8 µM (inactive)
- GI50 (LOX IMVI): 12.9 µM (inactive)
- GI50 (LXFL 529): 16.5 µM (inactive)
- GI50 (M14): 12.1 µM (inactive)
- GI50 (M19-MEL): 13.6 µM (inactive)
- GI50 (MOLT-4): 16.7 µM (inactive)
- GI50 (Malme-3M): 35 µM (inactive)
- GI50 (NCI-H226): 18.8 µM (inactive)
- GI50 (NCI-H23): 19.2 µM (inactive)
- GI50 (NCI-H460): 20.7 µM (inactive)
- GI50 (NCI-H522): 5.87 µM (inactive)
- GI50 (OVCAR-3): 18.2 µM (inactive)
- GI50 (OVCAR-4): 20.2 µM (inactive)
- GI50 (OVCAR-5): > 8.99 µM (inactive)
- GI50 (OVCAR-8): 28.9 µM (inactive)
- GI50 (RPMI-8226): 14.5 µM (inactive)
- GI50 (RXF 393): 25.9 µM (inactive)
- GI50 (SF-268): 19.8 µM (inactive)
- GI50 (SF-295): 17.4 µM (inactive)
- GI50 (SF-539): 26.5 µM (inactive)
- GI50 (SK-MEL-28): 24.4 µM (inactive)
- GI50 (SK-MEL-2): > 89.9 µM (inactive)
- GI50 (SK-MEL-5): 15.7 µM (inactive)
- GI50 (SK-OV-3): > 89.9 µM (inactive)
- GI50 (SN12C): 13.3 µM (inactive)
- GI50 (SNB-19): 50.9 µM (inactive)
- GI50 (SNB-75): 32.7 µM (inactive)
- GI50 (SNB-78): 33.3 µM (inactive)
- GI50 (SW-620): 14 µM (inactive)
- GI50 (TK-10): > 89.9 µM (inactive)
- GI50 (U-251): 16 µM (inactive)
- GI50 (UACC-257): 31 µM (inactive)
- GI50 (UACC-62): 14.7 µM (inactive)
- GI50 (UO-31): 15.3 µM (inactive)

Compound: COc1cc(/C=C2/C(=O)N(C(=O)c3ccccc3O)N=C2C)ccc1O
- GI50 (786-0): 0.421 µM (active)
- GI50 (A498): 0.0771 µM (active)
- GI50 (A549): 0.358 µM (active)
- GI50 (ACHN): 0.123 µM (active)
- GI50 (CAKI-1): 0.217 µM (active)
- GI50 (CCRF-CEM): 0.201 µM (active)
- GI50 (COLO 205): 18.9 µM (inactive)
- GI50 (DLD-1): 0.0603 µM (active)
- GI50 (DMS-114): 0.171 µM (active)
- GI50 (DU-145): 658 nM (active)
- GI50 (EKVX): 0.586 µM (active)
- GI50 (HCC 2998): 4.65 µM (inactive)
- GI50 (HCT-116): 0.0957 µM (active)
- GI50 (HCT-15): 0.406 µM
- GI50 (HL-60): 0.536 µM (active)
- GI50 (HOP-62): 1.77 µM (inactive)
- GI50 (HOP-92): 0.143 µM (active)
- GI50 (HT-29): 9.55 µM (inactive)
- GI50 (Hs-578T): 272 nM (active)
- GI50 (IGROV-1): 0.123 µM (active)
- GI50 (K562): 0.104 µM (active)
- GI50 (KM-20L2): 18.5 µM (inactive)
- GI50 (KM12): 0.202 µM (active)
- GI50 (LOX IMVI): 0.465 µM (active)
- GI50 (LXFL 529): 0.0515 µM (active)
- GI50 (M14): 0.698 µM (active)
- GI50 (M19-MEL): 0.653 µM (active)
- GI50 (MCF7): 514 nM (active)
- GI50 (MDA-MB-231): > 100 µM (inactive)
- GI50 (MDA-MB-435): 409 nM (active)
- GI50 (MDA-N): 385 nM (active)
- GI50 (Malme-3M): 0.43 µM (active)
- GI50 (NCI-H226): 0.701 µM (active)
- GI50 (NCI-H23): 0.277 µM (active)
- GI50 (NCI-H460): 0.161 µM (active)
- GI50 (NCI-H522): 0.593 µM (active)
- GI50 (NCI/ADR-RES): 596 nM (active)
- GI50 (OVCAR-3): 0.4 µM (active)
- GI50 (OVCAR-4): 1.28 µM (inactive)
- GI50 (OVCAR-5): 6.46 µM (inactive)
- GI50 (OVCAR-8): 0.352 µM (active)
- GI50 (PC-3): 802 nM (active)
- GI50 (RPMI-8226): 1.06 µM (active)
- GI50 (RXF 393): 0.0628 µM (active)
- GI50 (SF-268): 0.23 µM (active)
- GI50 (SF-295): 0.214 µM (active)
- GI50 (SF-539): 0.14 µM (active)
- GI50 (SK-MEL-28): 34.4 µM (inactive)
- GI50 (SK-MEL-2): 1.01 µM (active)
- GI50 (SK-MEL-5): 0.274 µM (active)
- GI50 (SK-OV-3): 0.223 µM (active)
- GI50 (SN12C): 0.719 µM (active)
- GI50 (SNB-19): 0.123 µM (active)
- GI50 (SR): 0.206 µM (active)
- GI50 (SW-620): 1.36 µM (inactive)
- GI50 (T47D): 404 nM (active)
- GI50 (TK-10): 5.4 µM (inactive)
- GI50 (U-251): 0.144 µM (active)
- GI50 (UACC-257): 0.838 µM (active)
- GI50 (UACC-62): 0.0518 µM (active)
- GI50 (UO-31): 0.17 µM (active)
- GI50 (XF498): 72.3 nM (active)
